The values that follow come from US20260077069A1, “COMBINATIONS OF CONTRAST AGENTS” (BAYER AKTIENGESELLSCHAFT, priority 2022, published 2026).

Read-outs that look alike come from different tables or passages of the source. Marks after values point to notes of the source that are not given here.

For series [1] the following is noted: 1.5 T, 37° C., Invest Radiol. 2005, cited from earlier work; for r1 plasma: bovine plasma instead of human plasma.
The conditions of series [2]: 37° C., from Robic et al. Invest Radiol. 2019, cited from earlier work.
The test system of series [3] is freshly isolated rat hepatocytes. Nature of the series: Uptake into freshly isolated rat hepatocytes. In kind it is cell-based. Particulars: for Inhibition Rifampicine: uptake with OATP1B1/1B3 inhibitor Rifampicine 1:1, each 100 uM. On the procedure:
Freshly isolated rat hepatocytes were received as described before (Papeleu P. et al. (2006) Isolation of Rat Hepatocytes. In: Phillips I. R., Shephard E. A. (eds) Cytochrome P450 Protocols. Methods in Molecular Biology, vol 320. Humana Press, Totowa, NJ. https://doi.org/10.1385/1-59259-998-2:229). The rat hepatocytes were incubated (2.5·10^5 cells/well) for 2.5 to 4 h in collagen coated 24-well plates (Fa. Beckton Dickinson Biocoat, cell environments, Collagen I Cellware) in Williams E-medium (Fa. Sigma W1878) in an incubator (37° C., 5% CO2 and […]). After incubation the adherent hepatocytes were washed once with 37° C. Hepes carbonate transport buffer (500 μL/well). The test items and RC3 were prepared from stock solutions (180 to 500 mM concentration) in Hepes carbonate transport buffer at pH 7.4 to reach a final concentration of 100 μmol Gd/L. The specific uptake of the test item or RC3 into rat hepatocytes via OATP1B1 and OATP1B3 was challenged using a known OATP1B1/1B3 inhibitor (Rifampicine, Fa. Sigma R3501, test item and inhibitor 1:1 each 100 µM final concentration). The prepared rat hepatocyte plates were incubated with test solutions (500 μL/well) at 37° C. for 10 min using a thermoshaker (Fa. Grant Bio, PHMP). Triplicates were performed for each test item. After incubating the cells were washed once with cold PBS buffer (Fa. Gibco, Dulbeccos PBS (+)). After washing the intact hepatocytes were lysed by addition of 500 μL cold 0.01% Triton-X 100 in Millipore water for 1 h. The strongly hypo-osmolar water led to cell membrane rupture and the release of the intracellular Gd-compound. After 1 h 500 μL of 10 nM Terbium ICP-MS standard was added in 2% nitric acid and 0.01% Triton 100 before the Gadolinium concentrations in the lysate were measured using ICP-MS (Agilent 8900, singleQuad, integr. Time 0.3 s, no gas, 5 replicates, Gd m/z 157, Tb m/z 159). As a reference standard RC3 is used in the same well plate. The hepatocyte uptake of the test compound is calculated relative to RC3 (resulting in the unit % of RC3).

Series [4] is described as follows: Relaxivity measurements at 1.41 T in water and human plasma. The series is classed as physicochemical. The note with it: 37° C., normalized to Gd. On the procedure: Relaxivity measurements at 1.41 T were performed using a MiniSpec mq60 spectrometer (Bruker Analytik, Karlsruhe, Germany) operating at a resonance frequency of 60 MHz and a temperature of 37° C. The T1 relaxation times were determined using the standard inversion recovery (IR) method with a fixed relaxation delay of at least 5×T1. The variable inversion time (TI) was calculated automatically by the standard software of the MiniSpec mq60 (8 steps). The T2 measurements were performed by using a Carr-Purcell-Meiboom-Gill (CPMG) pulse sequence, applying a relaxation delay of at least 5×T1.
Each relaxivity measurement was performed using three different Gd concentrations (3 concentrations between 0.05 and 2 mM). The T1 and T2 relaxation times of the example compounds were measured in water and human plasma. Human plasma preparation: For each experiment fresh blood was taken from a volunteer using 10 mL citrate-tubes (Sarstedt S-Monovette 02.1067.001, 10 mL, Citrate). The 10 mL citrate-tubes were carefully inverted 10 times to mix blood and anticoagulant and centrifuged for 15 min at 1811 g at RT (Eppendorf, Centrifuge 5810R).
The relaxivities ri (where i=1, 2) were calculated based on the measured relaxation rates Ri in water and plasma:
where Ri(0) represent the relaxation rate of the respective solvent and CGd the concentration of the compound normalized to the Gadolinium. The Gadolinium concentrations of the investigated solutions were verified by Inductively Coupled Plasma Mass Spectrometry (ICP-MS Agilent 7500a, Waldbronn, Germany).

For the compound `O=C([O-])CN1CCN(CC(=O)[O-])CCN([C@H](CO)[C@H](O)CO)CCN(CC(=O)[O-])CC1.[Gd+3]` (racemic) [RC 1, gadobutrol], in series [1], the r1 plasma is reported as 3.6^# L·mmol^−1·s^−1 and the r1 water is listed as 2.9^# L·mmol^−1·s^−1.
As for `O=C(CCC(C(=O)[O-])N1CCN(C(CCC(=O)NCC(O)CO)C(=O)[O-])Cc2cccc(n2)CN(C(CCC(=O)NCC(O)CO)C(=O)[O-])CC1)NCC(O)CO.[Gd+3]` (stereo not shown) [Compound 11], in series [2] (human plasma), the r1 human plasma is recorded as 12.8** L·mmol^−1·s^−1. The r1 water in series [2] (water) is listed as 12.2** L·mmol^−1·s^−1.
Turning to `CCOCCOCCOc1ccc(CC(C(=O)[O-])N2CCN(CC(=O)[O-])CCN(C(CC)C(=O)[O-])CCN(CC(=O)O)CC2)cc1.[Gd+3]` (stereo not shown) [Compound 20], in series [3], the “Inhibition Rifampicine” value was 97 % inhibition. Also, in series [4], the r1 human plasma was 6.9 L/mmol/s and the r1 water came to 4.8 L/mmol/s.
On the same counts, the results for `O=C([O-])CN1CCN(CC(=O)[O-])CCN(C(Cc2ccc(OCC(F)(F)C(F)F)cc2)C(=O)[O-])CCN(CC(=O)O)CC1.[Gd+3]` (stereo not shown) [Compound 21] are 90 % inhibition, 10.8 L/mmol/s and 3.5 L/mmol/s.
On the same counts, the results for `CCOCCOc1ccc(CC2CN(CC(=O)[O-])CCN(CC(=O)[O-])CCN(CC(=O)[O-])CCN2CC(=O)O)cc1.[Gd+3]` (stereo not shown) [Compound 22] are 94 % inhibition, 6.6 L/mmol/s and 4.8 L/mmol/s.
As to `CCOc1ccc(CC2CN(CC(=O)[O-])CCN(CC(=O)[O-])CCN(CC(=O)O)CCN2CC(=O)[O-])cc1.[Gd+3]` (stereo not shown) [Compound 23], the “Inhibition Rifampicine” value in series [3] worked out at 96 % inhibition. In series [4], this compound came in with a r1 human plasma of 6.2 L/mmol/s and a r1 water of 4.5 L/mmol/s.
As for `CCCCOc1ccc(CC2CN(CC(=O)[O-])CCN(CC(=O)[O-])CCN(CC(=O)O)CCN2CC(=O)[O-])cc1.[Gd+3]` (stereo not shown) [Compound 24], the “Inhibition Rifampicine” value in series [3] was 86 % inhibition. In series [4], this compound registered a r1 human plasma of 9.8 L/mmol/s and a r1 water of 5.3 L/mmol/s.
As for `CNC[C@H](O)[C@@H](O)[C@H](O)[C@H](O)CO.O=C([O-])CN1CCN(CC(=O)[O-])CCN(CC(=O)O)CCN(CC(=O)[O-])CC1.[Gd+3]` [RC 2, gadoterate meglumine], in series [1], the r1 plasma was 5.2^# L·mmol^−1·s^−1 and the r1 water is on record as 3.3^# L·mmol^−1·s^−1.
Regarding `CCOc1ccc(CC(CN(CCN(CC(=O)[O-])CC(=O)[O-])CC(=O)[O-])N(CC(=O)[O-])CC(=O)[O-])cc1.[Gd+3].[Na+].[Na+]` (stereo not shown) [RC 3, gadoxetate disodium], in series [3], the “Inhibition Rifampicine” value amounted to 97 % inhibition. In series [1], the r1 plasma was 6.9^# L·mmol^−1·s^−1 and the r1 water is 4.7^# L·mmol^−1·s^−1.
In the case of `O=C([O-])CN(CCN(CC(=O)[O-])CC(=O)[O-])CCN(CC(=O)[O-])C(COCc1ccccc1)C(=O)[O-].[Gd+3].[H+].[H+]` (stereo not shown) [RC 4, gadobenic acid, reference compound], the Uptake rat hepatocytes in series [3] (100 μmol Gd/L, 10 min, 37° C., Gd in lysate by ICP-MS, relative to RC3) is recorded as 9 % of RC3. Also, in series [3], the “Inhibition Rifampicine” value is on record as 79 % inhibition. In series [1], the r1 plasma was 6.3^# L·mmol^−1·s^−1 and the r1 water was 4.0^# L·mmol^−1·s^−1.
